This note sets out measurements from patent US12539292B2, “BRM targeting compounds and associated methods of use” (Arvinas Operations, Inc., priority 2018, dated 2026).

The target of the assay is T1, BRM (Homo sapiens, UniProt P51531).
T1 construct: In-Cell Western Screen of BRM Degradation in SW1573 Cells; endogenous in cells; host or cells: SW1573
In words: In-cell Western screen of BRM degradation in SW1573 cells (Dmax and DC50). Type of assay: cell-based. The method, boiled down: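 SW1573 cells were treated with compound overnight (18-20 h; final DMSO 0.1%), then fixed in 4% PFA, permeabilized with Triton X-100 and blocked. BRM was detected by in-cell Western using 800 nm anti-rabbit and 680 nm anti-mouse secondaries, and Dmax and DC50 were derived from the LI-COR Odyssey signal.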

Setting [1] is: BRM degradation, read-out: BRM DC50.
The mark [2] stands for this setting: SW1573, % degraded, when tested at the top concentration of between 0.3 and 10 μM, read-out: BRM Dmax (%).
The mark [3] stands for this setting: BRM degradation, SW1573 cells, read-out: DC50.
The mark [4] stands for this setting: BRM degradation, SW1573 cells, read-out: Dmax (% degraded).
Setting [5] is: BRM degradation, SW1573 cells, tested at the top concentration of between 0.3 and 10 μM, read-out: Dmax (%) (% degraded).

Where two headings read alike, the source gives them in different places.

T1 sequence (P51531 whole entry): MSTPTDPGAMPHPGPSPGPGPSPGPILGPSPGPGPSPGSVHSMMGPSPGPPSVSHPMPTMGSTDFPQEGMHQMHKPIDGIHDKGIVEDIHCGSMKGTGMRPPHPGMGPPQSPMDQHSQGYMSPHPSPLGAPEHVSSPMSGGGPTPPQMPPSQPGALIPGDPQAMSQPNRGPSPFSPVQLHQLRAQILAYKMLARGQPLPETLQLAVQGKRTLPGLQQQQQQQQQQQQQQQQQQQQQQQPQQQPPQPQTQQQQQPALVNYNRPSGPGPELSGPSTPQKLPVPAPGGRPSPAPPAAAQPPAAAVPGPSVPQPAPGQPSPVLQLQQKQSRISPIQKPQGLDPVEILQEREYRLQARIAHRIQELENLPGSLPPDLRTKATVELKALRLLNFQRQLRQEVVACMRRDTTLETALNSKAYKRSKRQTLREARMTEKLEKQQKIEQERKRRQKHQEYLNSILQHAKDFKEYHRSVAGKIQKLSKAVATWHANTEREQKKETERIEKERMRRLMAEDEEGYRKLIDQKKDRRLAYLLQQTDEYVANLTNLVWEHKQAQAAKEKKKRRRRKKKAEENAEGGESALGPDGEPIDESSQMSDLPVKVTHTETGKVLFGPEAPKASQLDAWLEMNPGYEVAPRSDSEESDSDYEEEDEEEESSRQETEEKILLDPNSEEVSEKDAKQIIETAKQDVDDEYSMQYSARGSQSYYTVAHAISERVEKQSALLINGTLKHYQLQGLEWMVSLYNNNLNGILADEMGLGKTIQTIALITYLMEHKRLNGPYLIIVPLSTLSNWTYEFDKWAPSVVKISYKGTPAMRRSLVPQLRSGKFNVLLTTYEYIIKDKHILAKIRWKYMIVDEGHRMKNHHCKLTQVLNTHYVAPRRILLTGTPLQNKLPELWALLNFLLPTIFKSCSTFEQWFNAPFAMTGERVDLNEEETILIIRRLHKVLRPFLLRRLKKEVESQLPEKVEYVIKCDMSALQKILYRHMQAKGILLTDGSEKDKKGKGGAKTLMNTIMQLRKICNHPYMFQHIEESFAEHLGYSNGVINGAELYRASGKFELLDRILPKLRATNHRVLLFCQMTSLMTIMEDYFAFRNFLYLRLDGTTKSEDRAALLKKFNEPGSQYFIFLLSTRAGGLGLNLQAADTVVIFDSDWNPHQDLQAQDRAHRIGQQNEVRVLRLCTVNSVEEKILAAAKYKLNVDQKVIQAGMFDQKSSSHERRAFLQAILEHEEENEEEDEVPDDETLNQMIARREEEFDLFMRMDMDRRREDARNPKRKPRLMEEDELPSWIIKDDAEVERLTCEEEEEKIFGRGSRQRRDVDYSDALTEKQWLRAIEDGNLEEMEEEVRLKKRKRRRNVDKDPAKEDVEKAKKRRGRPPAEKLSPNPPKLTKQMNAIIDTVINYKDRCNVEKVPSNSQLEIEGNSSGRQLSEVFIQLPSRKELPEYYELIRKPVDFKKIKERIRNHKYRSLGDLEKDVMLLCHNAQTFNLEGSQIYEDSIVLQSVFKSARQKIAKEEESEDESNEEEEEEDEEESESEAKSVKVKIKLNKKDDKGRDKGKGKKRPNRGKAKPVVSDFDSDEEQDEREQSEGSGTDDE

Broadly, the DC50 is the concentration at which degradation of the target reaches its halfway point. The Dmax is the largest share of the target that was removed. `Cc1ncsc1-c1ccc([C@H](C)NC(=O)[C@@H]2C[C@@H](O)CN2C(=O)[C@@H](c2cc(OCCN3CCC(O[C@H]4C[C@H](Oc5cc(N6C7CCC6CN(c6cc(-c8cc(F)ccc8O)nnc6N)C7)ccn5)C4)CC3)no2)C(C)C)cc1` [compound 502, (2S,4R)-1-((2R)-2-(3-(2-(4-((1r,3R)-3-((4-(3-(3-amino-6-(5-fluoro-2-hydroxyphenyl)pyridazin-4-yl)-3,8-diazabicyclo[3.2.1]octan-8-yl)pyridin-2-yl)oxy)cyclobutoxy)piperidin-1-yl)ethoxy)isoxazol-5-yl)-3-methylbutanoyl)-4-hydroxy-N-((S)-1-(4-(4-methylthiazol-5-yl)phenyl)ethyl)pyrrolidine-2-carboxamide]: under setting [1], the DC50 is under 2.5 nM. The Dmax under setting [2] was over 75%.
As for `Cc1ncsc1-c1ccc([C@H](C)NC(=O)[C@@H]2C[C@@H](O)CN2C(=O)[C@@H](c2cc(N3CCC(CN4CCC(O[C@H]5C[C@H](Oc6cc(N7C8CCC7CN(c7cc(-c9ccccc9O)nnc7N)C8)ccn6)C5)CC4)CC3)no2)C(C)C)c(F)c1F` [compound 679, (2S,4R)-1-((2R)-2-(3-(4-((4-((1r,3r)-3-((4-(3-(3-amino-6-(2-hydroxyphenyl)pyridazin-4-yl)-3,8-diazabicyclo[3.2.1]octan-8-yl)pyridin-2-yl)oxy)cyclobutoxy)piperidin-1-yl)methyl)piperidin-1-yl)isoxazol-5-yl)-3-methylbutanoyl)-N-((S)-1-(2,3-difluoro-4-(4-methylthiazol-5-yl)phenyl)ethyl)-4-hydroxypyrrolidine-2-carboxamide], under setting [3], the DC50 is under 2.5 nM. For the same molecule, under setting [4], the Dmax is over 75%.
Regarding `Cc1ncsc1-c1ccc([C@H](C)NC(=O)[C@@H]2C[C@@H](O)CN2C(=O)[C@@H](c2cc(OCCOCCOCCCCN3CCC4(CC3)CCN(c3cc(-c5ccccc5O)nnc3N)CC4)no2)C(C)C)cc1` [compound 68, (2S,4R)-1-((R)-2-(3-(2-(2-(4-(9-(3-amino-6-(2-hydroxyphenyl)pyridazin-4-yl)-3,9-diazaspiro[5.5]undecan-3-yl)butoxy)ethoxy)ethoxy)isoxazol-5-yl)-3-methylbutanoyl)-4-hydroxy-N-((S)-1-(4-(4-methylthiazol-5-yl)phenyl)ethyl)pyrrolidine-2-carboxamide], the DC50 under setting [3] was 2.5 to 10 nM. The Dmax (BRM degradation, SW1573 cells, when tested at the top concentration of between 0.3 and 10 μM, read-out: Dmax (%) (% degraded)) is over 75%.
For the molecule `Cc1ncsc1-c1ccc([C@H](C)NC(=O)[C@@H]2C[C@@H](O)CN2C(=O)[C@@H](c2cc(OCCCN3CCN(CCCOc4cc(N5C6CCC5CN(c5cc(-c7ccccc7O)nnc5N)C6)ccn4)CC3)no2)C(C)C)cc1` [compound 385, (2S,4R)-1-((2R)-2-(3-(3-(4-(3-((4-(3-(3-amino-6-(2-hydroxyphenyl)pyridazin-4-yl)-3,8-diazabicyclo[3.2.1]octan-8-yl)pyridin-2-yl)oxy)propyl)piperazin-1-yl)propoxy)isoxazol-5-yl)-3-methylbutanoyl)-4-hydroxy-N-((S)-1-(4-(4-methylthiazol-5-yl)phenyl)ethyl)pyrrolidine-2-carboxamide], under setting [2], the Dmax was over 75%. Also, for the setting “target protein degradation, read-out: BRM DC50”, the DC50 was under 2.5 nM.
`Cc1ncsc1-c1ccc([C@H](C)NC(=O)[C@@H]2C[C@@H](O)CN2C(=O)[C@@H](c2cc(O[C@H]3C[C@H](CN4CCC(O[C@H]5C[C@H](Oc6cc(N7C8CCC7CN(c7cc(-c9ccccc9O)nnc7N)C8)ccn6)C5)CC4)C3)no2)C(C)C)cc1` [compound 242, (2S,4R)-1-((2R)-2-(3-((1R,3R)-3-((4-((1r,3R)-3-((4-(3-(3-amino-6-(2-hydroxyphenyl)pyridazin-4-yl)-3,8-diazabicyclo[3.2.1]octan-8-yl)pyridin-2-yl)oxy)cyclobutoxy)piperidin-1-yl)methyl)cyclobutoxy)isoxazol-5-yl)-3-methylbutanoyl)-4-hydroxy-N-((S)-1-(4-(4-methylthiazol-5-yl)phenyl)ethyl)pyrrolidine-2-carboxamide]: the DC50 under setting [3] is under 2.5 nM. Moreover, under setting [5], the greatest degradation seen (Dmax) was over 75%.
The like results for `Cc1ncoc1-c1ccc([C@H](C)NC(=O)[C@@H]2C[C@@H](O)CN2C(=O)[C@H](c2cc(OCCN3CCC(O[C@H]4C[C@H](Oc5cc(N6C7CCC6CN(c6cc(-c8ccccc8O)nnc6N)C7)ccn5)C4)CC3)no2)C(C)C)cc1` [compound 212, (2S,4R)-1-((2S)-2-(3-(2-(4-((1r,3S)-3-((4-(3-(3-amino-6-(2-hydroxyphenyl)pyridazin-4-yl)-3,8-diazabicyclo[3.2.1]octan-8-yl)pyridin-2-yl)oxy)cyclobutoxy)piperidin-1-yl)ethoxy)isoxazol-5-yl)-3-methylbutanoyl)-4-hydroxy-N-((S)-1-(4-(4-methyloxazol-5-yl)phenyl)ethyl)pyrrolidine-2-carboxamide] were, in that order, over 30 nM and over 75%.
With `Cc1ncsc1-c1ccc([C@@H](C)NC(=O)[C@H]2C[C@H](O)CN2C(=O)[C@H](c2cc(OCCN3CCC(O)(CN4CC(Oc5cc(N6C7CCC6CN(c6cc(-c8ccccc8O)nnc6N)C7)ccn5)C4)CC3)no2)C(C)C)cc1` (mixture of isomers) [compound 446, rac-(2R,4S)-1-((2S)-2-(3-(2-(4-((3-((4-(3-(3-amino-6-(2-hydroxyphenyl)pyridazin-4-yl)-3,8-diazabicyclo[3.2.1]octan-8-yl)pyridin-2-yl)oxy)azetidin-1-yl)methyl)-4-hydroxypiperidin-1-yl)ethoxy)isoxazol-5-yl)-3-methylbutanoyl)-4-hydroxy-N-((R)-1-(4-(4-methylthiazol-5-yl)phenyl)ethyl)pyrrolidine-2-carboxamide], for the setting “degradation of BRM, read-out: BRM DC50”, the DC50 was over 30 nM.
For `Cc1ncsc1-c1ccc([C@H](C)NC(=O)[C@@H]2C[C@@H](O)CN2C(=O)C(c2cc(N3CCC(C(C)(C)N4CCC(O[C@H]5C[C@H](Oc6cc(N7C8CCC7CN(c7cc(-c9ccccc9O)nnc7N)C8)ccn6)C5)CC4)CC3)no2)C(C)C)cc1` (stereo partly drawn) [compound 692, (2S,4R)-1-(2-(3-(4-(2-(4-((1r,3r)-3-((4-(3-(3-amino-6-(2-hydroxyphenyl)pyridazin-4-yl)-3,8-diazabicyclo[3.2.1]octan-8-yl)pyridin-2-yl)oxy)cyclobutoxy)piperidin-1-yl)propan-2-yl)piperidin-1-yl)isoxazol-5-yl)-3-methylbutanoyl)-4-hydroxy-N-((S)-1-(4-(4-methylthiazol-5-yl)phenyl)ethyl)pyrrolidine-2-carboxamide], the 50% degradation concentration (DC50) under setting [3] is under 2.5 nM. The Dmax under setting [4] is over 75%.
For `Cc1ncsc1-c1ccc([C@H](C)NC(=O)[C@@H]2C[C@@H](O)CN2C(=O)[C@@H](c2cc(N3CCC[C@@H](CN4CCC(O[C@H]5C[C@H](Oc6cc(N7C8CCC7CN(c7cc(-c9ccccc9O)nnc7N)C8)ccn6)C5)CC4)C3)no2)C(C)C)cc1` (single isomer, unassigned) [compound 657], in that order: under 2.5 nM and over 75%.
`Cc1ncsc1-c1ccc([C@H](C)NC(=O)[C@@H]2C[C@@H](O)CN2C(=O)[C@@H](c2cc(N3CC(CN4CC(COc5cc(N6C7CCC6CN(c6cc(-c8ccccc8O)nnc6N)C7)ccn5)C4)C3)no2)C(C)C)cc1` [compound 519, (2S,4R)-1-((2R)-2-(3-(3-((3-(((4-(3-(3-amino-6-(2-hydroxyphenyl)pyridazin-4-yl)-3,8-diazabicyclo[3.2.1]octan-8-yl)pyridin-2-yl)oxy)methyl)azetidin-1-yl)methyl)azetidin-1-yl)isoxazol-5-yl)-3-methylbutanoyl)-4-hydroxy-N-((S)-1-(4-(4-methylthiazol-5-yl)phenyl)ethyl)pyrrolidine-2-carboxamide]: the DC50 under setting [1] was over 30 nM.
